# From PubChem BioAssay AID2384 (Southern Research Specialized Biocontainment Screening …, 2010)
# Test system: S. typhi GFP reporter counter-screen, fluorescence, 4 h
# Assay: S. typhi counter-screen signal inhibition – fluorescence, 4 h, counter-screen for PhoP regulon inhibitor project, dose response (AID 2384)
row,Compound,IC50
1,CN(C)CC/C=C1\c2ccc(F)cc2Sc2cc(F)c(Cl)cc21,19.5 µM
2,COc1ccc(-c2cnc(NCc3cc4c(cc3[N+](=O)[O-])OCO4)n2C)cc1,145 µM
3,Cc1nc2ccccc2c(N)c1C(=O)/C=C/c1ccccc1,101 µM
4,COc1ccccc1N1CCN(Cc2ccc(O)c3ncccc23)CC1,32.5 µM
5,CN(C)CCNC(=O)/C(=C/c1ccc(-c2ccc(Cl)cc2)o1)NC(=O)c1ccccc1,63.1 µM
6,CC(C(=O)NC1C=CS(=O)(=O)C1)N1C(=O)/C(=C/c2cccc(Cl)c2)SC1=S (stereo not given),59.2 µM
7,CCn1cc(C(=O)NCCN(C)C)c(=O)c2cc(F)c(N3CCN(C)CC3)cc21,52.8 µM
8,Cc1cc(C)n2nc(S(=O)(=O)Nc3c(Cl)cccc3Cl)nc2n1,49.7 µM
9,Cc1cc(Br)ccc1OCCCCNCCO,30.7 µM
10,CN1CCN(C2Cc3cc(F)ccc3Sc3ccc(Cl)cc32)CC1 (stereo not given),34.6 µM
11,Cn1c(CN2CCCC2)nc2cc(NC(=O)COc3ccc(Cl)cc3)ccc21,128 µM
12,O=C(N/N=C/c1cc(Cl)ccc1O)c1cccnc1,20.9 µM
13,OC(c1cc(C(F)(F)F)nc2c(C(F)(F)F)cccc12)C1CCCCN1 (stereo not given),19.1 µM
14,O=C(c1ccccc1)c1c2c(cc3sc4ccccc4[n+]13)-c1cccc3cccc-2c13,55.4 µM
15,CC1=NOC(=O)/C1=C/c1ccc(O)cc1,146 µM
16,CCCCCc1ccc(OCCCC[n+]2cccc(C)c2)c(CCCCC)c1,64.9 µM
17,COC12C(COC(N)=O)C3=C(C(=O)C(C)=C(N)C3=O)N1CC1C2N1C (stereo not given),3.12 µM
18,N#C/C(N=Nc1ccccc1O)=N\Nc1ccccc1O,20.2 µM
19,CC1=NN(c2nc3ccccc3[nH]2)C(=O)C1Cc1ccccc1 (stereo not given),34.2 µM
20,Nc1nc(Nc2ccc(Cl)cc2)nc2ccccc12,17 µM
21,O=C(Nc1cccc(NC(=O)c2ccccc2Cl)c1)c1ccc([N+](=O)[O-])o1,100 µM
22,O=C(Cn1cnc2ccccc21)Nc1ccc(SC(F)F)cc1,143 µM
23,CC(C)N1CSC(=S)N(Cc2ccccc2)C1,49.4 µM
24,O=C(C[n+]1cc(-c2ccccc2)n2c1CCC2)Nc1nc(-c2ccc(F)cc2)cs1,37 µM
25,Oc1ccccc1-c1cc(C(F)(F)C(F)F)[nH]n1,81.2 µM
26,Cc1ccc(OCC(=O)N/N=C\c2c(C)[nH]n(-c3ccccc3)c2=O)c([N+](=O)[O-])c1,42.6 µM
27,CC(NCc1ccc(-c2ccccc2)cc1)C(O)c1ccccc1 (stereo not given),39 µM

row,Compound,IC50
1,COc1ccc(/C=N/Nc2cc(C)nc3ccccc23)cc1,29.2 µM
2,Cc1cc([N+](=O)[O-])nn1CC(=O)N/N=C/c1ccccc1O,35.3 µM
3,COc1ccc(NC2=NC3(CCCCC3)N=C(N)N2)cc1,138 µM
4,CC1CCN(CCC(=O)Nc2ccc(Cl)cc2)CC1,105 µM
5,COc1cccc(CNCCc2c[nH]c3ccccc23)c1OCc1ccccc1,89.1 µM
6,Oc1ccccc1C(Nc1nccs1)c1ccc2cccnc2c1O (stereo not given),18.6 µM
7,O=C(C[n+]1cccc(CNC(=O)c2ccc(OC(F)F)cc2)c1)Nc1ccc(SC(F)F)cc1,78.6 µM
8,O=C(N/N=C/c1cc(Br)ccc1O)c1ccncc1,20.6 µM
9,COc1ccc(/C=N/Nc2cc(C)nc3c(C)cccc23)cc1,40.7 µM
10,CC(=O)NNC(=S)NC(=O)c1ccccc1,18 µM
11,CCCCCCCCCCCCOC(=O)C[N+](C)(C)C,19.9 µM
12,Cc1ccc(S(=O)(=O)NNc2ccccc2)c(C)c1,42.7 µM
13,Cc1cccc(Nc2cc(C)c3c(O)cccc3n2)c1C,34 µM
14,CCOc1ccc(Nc2nc(N)c3ccccc3n2)cc1,44.4 µM
15,Oc1c(CN2CCN(c3ccccn3)CC2)cc(Cl)c2cccnc12,17.7 µM
16,CO[C@@]1(NC(=O)Cc2cccs2)C(=O)N2C(C(=O)O)=C(COC(N)=O)CS[C@@H]21,7.08 µM
17,CCCCCCCCCCCCCCCC[n+]1ccc(C(N)=O)cc1,9.85 µM
18,CS(=O)(=O)c1ccc([C@@H](O)[C@@H](CF)NC(=O)C(Cl)Cl)cc1,5.15 µM
19,O=C(Nc1ccccc1)Nc1nccs1,96 µM
20,CCCOc1ccc(C(=O)NNC(=S)NC(=O)CC)cc1,28.7 µM
21,C=CCNc1ncnc2c1[nH]c1ccc(Cl)cc12,37.2 µM
22,COc1ccc(S(=O)(=O)N2CN3CCN(C3)C2)cc1,90.8 µM
23,COc1cccc(Nc2nc(NCCO)c3ccccc3n2)c1,57.8 µM
24,Cc1ccc2cc(CN(CCN(C)C)C(=O)Nc3ccc(Cl)cc3)c(=O)[nH]c2c1,50.3 µM
25,C#CCOCCOCCOCCNc1nc(N2CCN(C(=O)CCCCCCCCCCNC(=O)[C@H](CO)n3cc(CCCCCN)nn3)CC2)nc(N2CCN(C(=O)CCCCCCCCCCNC(=O)[C@H](CCCN=C(N)N)n3cc(C[C@@H](C)CC)nn3)CC2)n1,19.5 µM
26,N=c1c2c(n(Cc3ccc(Cl)c(Cl)c3)c3c1CCC3)CCCC2,31.1 µM
27,CC(C(=O)c1ccc(-c2ccccc2)cc1)[n+]1cccc(NC(=O)c2ccccc2)c1 (stereo not given),19.4 µM

row,Compound,IC50
1,Cc1cc(C)c2nc(C)cc(N/N=C/c3ccc(O)cc3)c2c1,57.9 µM
2,CCCCCCCCCCCCCCCCn1cc[n+](C)c1,34.8 µM
3,Oc1ccc(/C=N/Nc2nccnc2Cl)c(O)c1,30.5 µM
4,Clc1ccc2c(c1)C(N1CCNCC1)Cc1ccccc1S2 (stereo not given),35.1 µM
5,CN1CC=C(/C=C/c2ccc(-c3ccccc3)cc2)CC1,23.7 µM
6,O=C(CC(=O)c1cc(Cl)ccc1O)c1ccccc1,26.8 µM
7,O=C(Nc1c2ccccc2nc2ccccc12)C(Cl)(Cl)Cl,79.8 µM
8,COc1ccc(Nc2c3ccccc3nc3ccccc23)cc1,23.7 µM
9,Cc1ccccc1C(=O)Nc1cccc(C(=O)N/N=C/c2cc(Cl)cc([N+](=O)[O-])c2O)c1,32.9 µM
10,COc1ccc(CNCC(O)COc2ccc(C(C)(C)c3ccccc3)cc2)cc1 (stereo not given),20.4 µM
11,O=[N+]([O-])/C=C/c1cc2ccccc2[nH]1,36.9 µM
12,CCCCCCCSc1cc(OC)c(CCN(C)C)cc1OC,30.7 µM
13,Oc1cccc2ccc(Nc3ccccn3)nc12,7.38 µM
14,C#CCOCCOCCOCCNc1nc(N2CCN(C(=O)[C@H](Cc3ccc(O)cc3)n3cc([C@@H](N)C(C)CC)nn3)CC2)nc(N2CCN(C(=O)[C@H](Cc3cc4ccccc4[nH]3)n3cc([C@@H](N)Cc4ccc(O)cc4)nn3)CC2)n1 (stereo not given in full),32.5 µM
15,COc1cc(/C=C/[N+](=O)[O-])ccc1O,45 µM
16,O=C(NC1CCCC1)c1ccc(Br)s1,49.5 µM
17,O=C(Cc1ccc(Br)cc1)c1ccc(O)cc1O,107 µM
18,CCN1CCN(Cc2ccc(NC(=O)c3cc(NC(=O)c4cc(-c5ccc(OC)cc5)n[nH]4)cc(OC)c3)cc2C(F)(F)F)CC1,145 µM
19,CCCCCCCC(=O)N/N=C/c1ccc([N+](=O)[O-])o1,40.2 µM
20,CCCCOc1ccc(NC2=NC3(CCCC3)N=C(N)N2)cc1,94.8 µM
21,COc1c(N2CCN(C(=S)Nc3ccccc3F)C(C)C2)c(F)cc2c(=O)c(C(=O)O)cn(C3CC3)c12 (stereo not given),9.45 µM
22,N=c1n(CCN2CCCCC2)c2ccccc2n1CC(O)c1ccc(Cl)c(Cl)c1 (stereo not given),19.8 µM
23,CCCCOc1ccc(Br)cc1CSC(=N)N,14.2 µM
24,CCN1CCN(C(=O)c2cc3ccc(OC)cc3[nH]2)CC1,34.1 µM
25,COc1cc(CNCCc2c[nH]c3ccccc23)ccc1OCc1ccccc1F,70.8 µM
26,NC1=NC[C@H](Cc2ccc(O)cc2)N1CCC12CC3CC(CC(C3)C1)C2,37.7 µM
27,O=c1cc(-c2ccc(O)cc2)oc2c(O)c(O)c(O)c(O)c12,35.6 µM

row,Compound,IC50
1,C[C@H]1c2cccc(O)c2C(O)=C2C(=O)C3(O)C(O)=C(C(N)=O)C(=O)[C@@H](N(C)C)[C@@H]3[C@@H](O)[C@@H]21 (stereo not given in full),0.82 µM
2,Cc1ccc(Nc2cc(C)c3c(O)cccc3n2)cc1C,11.7 µM
3,O=C(Nc1ccc2nc(-c3ccc(Br)o3)[nH]c2c1)c1cccs1,15 µM
4,Cc1ccc(-c2c[n+](CC(=O)Nc3nc(-c4ccccc4)cs3)c3n2CCC3)cc1,21.2 µM
5,Oc1c(Br)cc(Br)cc1C=NCc1ccccc1,40.4 µM
6,O=C(N/N=C/c1cc(Br)ccc1O)c1ccccc1Cl,112 µM
7,NC1=NC[C@H](Cc2ccccc2)N1CCCCC1CCCCC1,19.4 µM
8,C#CCOCCOCCOCCNc1nc(N2CCN(C(=O)CCCCCCCCCCNC(=O)[C@H](CCCCN)n3cc(CCO)nn3)CC2)nc(N2CCN(C(=O)CCCCCCCCCCNC(=O)[C@H](CCCCN)n3cc(CCO)nn3)CC2)n1,36.3 µM
9,O=c1cc(-c2ccccc2)cc(-c2ccccc2)n1O,32.3 µM
10,CCn1cc(C(=O)O)c(=O)c2cc(F)c(N3CCN(C(=S)NC(=O)c4ccc(Br)cc4)CC3)cc21,56 µM
11,O=C1OCC(CO)(CO)N=C1NNc1ccc(Cl)c(Cl)c1,144 µM
12,O=C(Nc1nc(-c2ccccn2)cs1)c1ccc(Cl)s1,21.3 µM
13,CN(C)c1ccc(Nc2nc(N)c3ccccc3n2)cc1,77.7 µM
14,CCOC(=O)N1CCN(CCC(=O)c2ccc(Cl)cc2)CC1,66.6 µM
15,OCCCCNCc1ccc(OCc2ccc(Cl)cc2Cl)cc1,56.7 µM
16,COc1ccc(Cl)cc1C(=O)C1CCCN(CCO)C1 (stereo not given),56.2 µM
17,O=C(C[n+]1cc(Br)cc2ccccc21)c1ccc(F)cc1,75.7 µM
18,C/C(O)=C\c1nc2ccccc2oc1=O,41.6 µM
19,O/N=C/C1=C(Cl)c2ccccc2CC1,93.4 µM
20,Cc1cc(C)n(/N=C/c2cc([N+](=O)[O-])ccc2O)c(=O)c1,39.5 µM
21,O=C(NCCCN1CCOCC1)c1sc2cc(Cl)ccc2c1Cl,81.7 µM
22,C=C1c2cccc(O)c2C(O)=C2C(=O)[C@]3(O)C(O)=C(C(N)=O)C(=O)[C@@H](N(C)C)[C@@H]3[C@@H](O)[C@H]12,< 0.23 µM
23,O=C(/C=C/c1ccccc1)c1ccc(NC2=NCCCS2)cc1,67.3 µM
24,CCCCC(CC)CN=C(N)NC(N)=NCCCCCCN=C(N)NC(N)=NCC(CC)CCCC (stereo not given),4.65 µM
